Data as given in US20240335427A1, “SMALL MOLECULE INHIBITION OF DEUBIQUITINATING ENZYME JOSEPHIN DOMAIN CONTAINING 1 (JOSD1) AS A TARGETED THERAPY FOR LEUKEMIAS WITH MUTANT JANUS KINASE 2 (JAK2)” (DANA-FARBER CANCER INSTITUTE, INC., priority 2021, published 2024).

Assays:
JOSD1 = JOSD1 (Homo sapiens (Human), UniProt Q15040); test: In vitro JOSD1 activity assay (biochemical IC50, purified enzyme); conditions: read-out: JOSD1 IC50
Description: In vitro JOSD1 activity assay & Ubiquitin-7-amido-4-methylcoumarin (AMC) assay. In vitro JOSD1 activity assay was carried out with Ubiquitin-AMC assay. […] Recombinant JOSD1 was tested for activity in a Ubiquitin-AMC assay in the presence or absence of inhibitors. […] The reaction was incubated for 6 hours at room temperature prior to the addition of 2 μM Ubiquitin-AMC (Boston Biochem) substrate. The initial rate of the reaction was measured by collecting fluorescence data at one-minute intervals over a 30-minute period using a Clariostar® fluorescence plate reader at excitation and emission wavelengths of 345 and 445 nm, respectively. The calculated initial rate values were plotted against inhibitor concentrations to determine IC50 values.
In vitro JOSD1 activity assay. Recombinant full-length JOSD1 was tested for activity in a Ubiquitin-AMC assay in the presence or absence or inhibitors. For this assay, 10 nM JOSD1 was pre-incubated with different concentrations of inhibitors or DMSO as a control in 50 mM Tris 8.0, 0.5 mM EDTA, 10 mM ovalbumin, 5 mM DTT. The reaction was incubated for 6 h at room temperature prior to the addition of 2 mM Ubiquitin-AMC (Boston Biochem) substrate. The initial rate of the reaction was measured by collecting fluorescence data at one-minute intervals over a 30-minute period using a CLARIOstar® fluorescence plate reader at excitation and emission wavelengths of 345 and 445 nm, respectively. The calculated initial rate values were plotted against inhibitor concentrations to determine IC50 values.
JOSD1 biochemical inhibition was investigated for the analogs shown using the fluorescent substrate ubiquitin-rhodamine against purified enzyme in a continuous kinetic assay.

UCHL1 = UCHL1 (Homo sapiens (Human), UniProt P09936); test: UCHL1 biochemical inhibition (ubiquitin hydrolase activity, purified enzyme)
Chain of UCHL1 (P09936 whole entry, species assumed): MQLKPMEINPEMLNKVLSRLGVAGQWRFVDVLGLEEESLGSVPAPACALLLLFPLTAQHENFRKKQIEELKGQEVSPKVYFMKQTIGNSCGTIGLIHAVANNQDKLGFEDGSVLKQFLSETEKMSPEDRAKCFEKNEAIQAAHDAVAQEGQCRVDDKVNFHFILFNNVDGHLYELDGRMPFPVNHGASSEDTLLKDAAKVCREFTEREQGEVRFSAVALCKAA

[1] = tested on: JAK2-V617F-positive primary AML patient samples; test: AML liquid culture proliferation, primary patient samples; type: cell-based, human; conditions: 1 μM
Description: AML liquid culture proliferation and colony assay studies. Frozen vials of bone marrow from AML patients identified as harboring JAK2-V617F were previously Ficoll®-purified to obtain mononuclear cells and thawed prior to use in studies.

| IC50 (JOSD1) | IC50 (UCHL1) | SMILES | efficacy against primary AML cells [1] |
| --- | --- | --- | --- |
| 45 nM | – | Cc1noc(C)c1-c1ccc2sc(NC(=O)[C@H]3CCN(C#N)C3)nc2c1 [Compound 4, (S)-1-cyano-N-(5-(3,5-dimethylisoxazol-4-yl)benzo[d]thiazol-2-yl)pyrrolidine-3-carboxamide] | – |
| 74 nM | – | Cc1noc(C)c1-c1cccc2sc(NC(=O)[C@H]3CCN(C#N)C3)nc12 [Compound 5, (S)-1-cyano-N-(4-(3,5-dimethylisoxazol-4-yl)benzo[d]thiazol-2-yl)pyrrolidine-3-carboxamide] | – |
| 82 nM | – | CCn1cc(-c2ccc3nc(NC(=O)[C@@H]4CCN(C#N)C4)sc3c2)cn1 [Compound 6, (R)-1-cyano-N-(6-(1-ethyl-1H-pyrazol-4-yl)benzo[d]thiazol-2-yl)pyrrolidine-3-carboxamide] | – |
| 288 nM | 2000 nM | N#CN1CC[C@H](C(=O)Nc2nc3ccc(Br)nc3s2)C1 [Compound 15, (S)—N-(5-bromothiazolo[5,4-b]pyridin-2-yl)-1-cyanopyrrolidine-3-carboxamide] | – |
| 420 nM | 90 nM | Cc1noc(C)c1-c1ccc2nc(NC(=O)[C@H]3CCN(C#N)C3)sc2n1 [Compound 19] | – |
| 430 nM | 2060 nM | N#CN1CC[C@H](NC(=O)c2nc3ccccc3s2)C1 [Compound 20] | – |
| 1100 nM | 100 nM | N#CN1CCC(C(=O)Nc2nc3c(s2)CN(C(=O)c2ccccc2)CC3)C1 (centres unmarked) [Compound 26] | – |
| 1100 nM | – | N#CN1CC[C@H](C(=O)Nc2cnn(Cc3ccccc3)c2)C1 [Compound 27, (S)—N-(1-benzyl-1H-pyrazol-4-yl)-1-cyanopyrrolidine-3-carboxamide] | – |
| 1370 nM | 3670 nM | N#CN1CC[C@H](C(=O)Nc2nc3ccccc3[nH]2)C1 [Compound 30, (S)—N-(1H-benzo[d]imidazol-2-yl)-1-cyanopyrrolidine-3-carboxamide] | – |
| 2130 nM | – | Cc1sc(N(C)C(=O)[C@@H]2CCCN2C#N)nc1-c1cccc(C#N)n1 [Compound 34] | – |
| 4850 nM | – | N#CN1CC[C@H](C(=O)Nc2nc3ccccc3o2)C1 [Compound 39, (S)—N-(benzo[d]oxazol-2-yl)-1-cyanopyrrolidine-3-carboxamide] | – |
| 5680 nM | 100000 nM | Cc1noc(C)c1-c1ccc2nc(NC(=O)[C@H]3CCN(CC#N)C3)sc2c1 [Compound 40, (S)-1-(cyanomethyl)-N-(6-(3,5-dimethylisoxazol-4-yl)benzo[d]thiazol-2-yl)pyrrolidine-3-carboxamide] | – |

Further lines, the compound ahead of its results:

| SMILES | IC50 (JOSD1) | IC50 (UCHL1) | efficacy against primary AML cells [1] |
| --- | --- | --- | --- |
| N#CN1CCC(C(=O)Nc2nc3ccc(C4CC4)cc3s2)C1 (stereo in doubt) [Compound 8, (R)-1-cyano-N-(6-cyclopropylbenzo[d]thiazol-2-yl)pyrrolidine-3-carboxamide] | 99 nM | 12 nM | – |
| N#CN1CC[C@H](C(=O)Nc2ccc3c(cnn3Cc3ccccc3)c2)C1 [Compound 10, (S)—N-(1-benzyl-1H-indazol-5-yl)-1-cyanopyrrolidine-3-carboxamide] | 160 nM | – | – |
| N#CN1CC[C@H](C(=O)Nc2nc(-c3ccccc3)cs2)C1 [Compound 11, (S)-1-cyano-N-(4-phenylthiazol-2-yl)pyrrolidine-3-carboxamide] | 160 nM | – | – |
| Cc1noc(C)c1-c1ccc2nc(NC(=O)[C@H]3CCN(C#N)C3)sc2c1 [Compound 12] | 244 nM | 100 nM | – |
| N#CN1CC[C@@H](C(=O)Nc2nc3ccc(-c4ccc(-c5ccccc5)cc4)cc3s2)C1 [Compound 14, (R)—N-(6-([1,1′-biphenyl]-4-yl)benzo[d]thiazol-2-yl)-1-cyanopyrrolidine-3-carboxamide] | 270 nM | – | – |
| Cc1cccc2sc(NC(=O)[C@H]3CCN(C#N)C3)nc12 [Compound 18, (S)-1-cyano-N-(4-methylbenzo[d]thiazol-2-yl)pyrrolidine-3-carboxamide] | 380 nM | – | – |
| Cc1noc(C)c1-c1ccc2cnc(NC(=O)[C@H]3CCN(C#N)C3)cc2c1 [Compound 21] | 460 nM | – | – |
| N#CN1CC[C@H](C(=O)Nc2nc3ccc(-c4c[nH]nc4C(F)(F)F)cc3s2)C1 [Compound 22, (S)-1-cyano-N-(6-(3-(trifluoromethyl)-1H-pyrazol-4-yl)benzo[d]thiazol-2-yl)pyrrolidine-3-carboxamide] | 520 nM | – | – |
| Cc1noc(C)c1-c1ccc2nc(NC(=O)[C@@H]3CCN(C#N)C3)sc2c1 [Compound 24] | 690 nM | 1850 nM | – |
| N#CN1CC[C@H](C(=O)Nc2ccn(Cc3ccccc3)c2)C1 [Compound 25] | 931 nM | 8900 nM | – |
| N#CN1CC[C@H](C(=O)Nc2cn(-c3ccccc3)cn2)C1 [Compound 28] | 1220 nM | 155 nM | – |
| N#CN1CC[C@@H](C(=O)Nc2cn(Cc3ccccc3)cn2)C1 [Compound 29] | – | 2000 nM | – |
| N#CN1CC[C@H](C(=O)Nc2nc3n(n2)CCN(Cc2ccccc2)C3)C1 [Compound 31] | 1400 nM | 2690 nM | – |
| N#CN1CC[C@H](C(=O)Nc2cn(Cc3ccccc3)cn2)C1 [Compound 32] | – | 104 nM | – |
| N#CN1CC(C(=O)Nc2nc3ccc(Br)cc3s2)C1 [Compound 33, N-(6-bromobenzo[d]thiazol-2-yl)-1-cyanoazetidine-3-carboxamide] | 1950 nM | 1830 nM | – |
| Cc1noc(C)c1-c1ccc2nc(NC(=O)C3CCN(C#N)CC3)sc2c1 [Compound 35, 1-Cyano-N-(6-(3,5-dimethylisoxazol-4-yl)benzo[d]thiazol-2-yl)piperidine-4-carboxamide] | 2770 nM | 420 nM | – |
| N#CN1CC[C@H](C(=O)Nc2nc3n(n2)CCN(C(=O)c2ccccc2)C3)C1 [Compound 36] | 3370 nM | 1340 nM | – |
| N#CN1CC[C@H](C(=O)Nc2cn(C3CCCN(C(=O)c4ccccc4)C3)cn2)C1 (some centres unmarked) [Compound 38] | 4150 nM | 89 nM | – |
| N#CN1CCc2cc(NC(=O)c3nc4ccccc4s3)ccc21 [Compound 41] | 6070 nM | 100000 nM | – |
| N#CN1CCC[C@H](C(=O)Nc2cn(Cc3ccccc3)cn2)C1 [Compound 42] | 6230 nM | 1080 nM | – |
| Cc1noc(C)c1-c1ccc2nc(NC(=O)c3ccnc(C#N)n3)sc2c1 [Compound 43, 2-Cyano-N-(6-(3,5-dimethyl-1λ^3,2λ^2-isoxazol-4-yl)benzo[d]thiazol-2-yl)pyrimidine-4-carboxamide] | 6420 nM | – | – |
| C#CCNC(=O)c1ccc(-c2cnc(NC(=O)[C@H]3CCN(C#N)C3)s2)cc1 [Compound 44, (S)-1-cyano-N-(5-(4-(prop-2-yn-1-ylcarbamoyl)phenyl)thiazol-2-yl)pyrrolidine-3-carboxamide] | 8250 nM | – | – |
| N#CN1CC(CNC(=O)c2nc3ccccc3s2)C1 [Compound 46, N-((1-cyanoazetidin-3-yl)methyl)benzo[d]thiazole-2-carboxamide] | 11300 nM | 100000 nM | – |
| Cc1noc(C)c1-c1ccc2nc(NC(=O)C3CN(C#N)C3)sc2c1 [Compound 47, 1-Cyano-N-(6-(3,5-dimethylisoxazol-4-yl)benzo[d]thiazol-2-yl)azetidine-3-carboxamide] | – | 1290 nM | – |
| N#CC[C@H](C1CCCC1)n1cc(-c2ncnc3[nH]ccc23)cn1 [ruxolitinib, reference compound] | – | – | at best modest efficacy |
